This is an account of results in patent publication US20250154152A1, “INHIBITORS OF NAEGLERIA FOWLERI” (Wisconsin Alumni Research Foundation, priority 2023, published 2025).

The structures appear in SMILES notation.

The assay relates to N. fowleri strain Nf69 (ATCC 30215) trophozoites. In words: Determination of EC50 values against Naegleria fowleri (growth inhibition, CellTiter Glo, 48 h). The settings on record: ATCC30215, N. fowleri Nf69 trophozoites, 48 h culture, 37° C., CellTiter Glo luminescence, read-out: EC50 uM against N. fowleri. It counts as cell-based. Summed up:
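Axenic Nf69 trophozoites in Nelson's complete medium with 10% FBS exposed to compound, initially 20–0.375 μM, for 48 h at 37 °C, 5% CO2. Viability read by CellTiter-Glo luminescence; % growth inhibition versus controls, triplicate averages fitted for EC50, with lower ranges used for very potent compounds.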
`Cc1cccc(CN2CCC[C@@H]3c4nc5cc(Cl)c(Cl)cc5c(=O)n4CC[C@H]32)n1` (racemic) [trans-7p, (±)-(4aR,13bS)-10,11-dichloro-4-((6-methylpyridin-2-yl)methyl)-1,2,3,4,4a,5,6,13b-octahydro-8H-[1,6]naphthyridino[5,6-b]quinazolin-8-one]: the half-maximal effective concentration (EC50) lay in the range of 0.1 to 1 µM. For `CN1CCC[C@H]2c3nc4cc(Cl)c(C(F)(F)F)cc4c(=O)n3CC[C@H]21` (racemic) [cis-5s, (±)-(4aR,13bR)-11-chloro-4-methyl-10-(trifluoromethyl)-1,2,3,4,4a,5,6,13b-octahydro-8H-[1,6]naphthyridino[5,6-b]quinazolin-8-one] the value was 0.1 to 1 µM; for `COc1cc(Cl)cc2c(=O)n3c(nc12)[C@@H]1CCCN(C)[C@@H]1CC3` (racemic) [cis-5t, (±)-(4aR,13bR)-10-chloro-12-methoxy-4-methyl-1,2,3,4,4a,5,6,13b-octahydro-8H-[1,6]naphthyridino[5,6-b]quinazolin-8-one], over 10 µM. Turning to `Cn1c([C@@H]2CCCN(CC3COC3)C2)nc2cnc(Cl)cc2c1=O` [Compound R-14n, (R)-6-chloro-3-methyl-2-(1-(oxetan-3-ylmethyl)piperidin-3-yl)pyrido[3,4-d]pyrimidin-4(3H)-one], the EC50 is over 10 µM. Consider `O=c1c2cc(Cl)c(Cl)cc2nc2n1CC[C@@H]1[C@@H]2CCCN1CC1CC1` (racemic) [trans-7q, (±)-(4aR,13bS)-10,11-dichloro-4-(cyclopropylmethyl)-1,2,3,4,4a,5,6,13b-octahydro-8H-[1,6]naphthyridino[5,6-b]quinazolin-8-one], for which the EC50 lay in the range of 0.0001 to 0.1 µM.

As to `O=c1c2cc(Cl)c(Cl)cc2nc2n1CC[C@@H]1[C@@H]2CCCN1Cc1ccc(Cl)cc1Cl` (racemic) [Compound 7v, (±)-(4aR,13bS)-10,11-dichloro-4-(2,4-dichlorobenzyl)-1,2,3,4,4a,5,6,13b-octahydro-8H-[1,6]naphthyridino[5,6-b]quinazolin-8-one], the 50% effective concentration (EC50) is over 10 µM. The figure for `CN1CCC[C@@H]2c3nc4cc(Br)ccc4c(=O)n3CC[C@H]21` (racemic) [trans-5l, (±)-(4aR,13bS)-11-bromo-4-methyl-1,2,3,4,4a,5,6,13b-octahydro-8H-[1,6]naphthyridino[5,6-b]quinazolin-8-one] is 1 to 10 µM; for `COc1cccc2c(=O)n3c(nc12)[C@@H]1CCN(C)[C@@H]1CC3` (racemic) [cis-5dd, (±)-(3aR,12bR)-11-methoxy-3-methyl-2,3,3a,4,5,12b-hexahydropyrrolo[3′,2′:3,4]pyrido[2,1-b]quinazolin-7(1H)-one] it is over 10 µM; for `Cn1c([C@@H]2CCCN(Cc3ccncc3)C2)nc2cc(Cl)c(Cl)cc2c1=O` [Compound R-14u, (R)-6,7-dichloro-3-methyl-2-(1-(pyridin-4-ylmethyl)piperidin-3-yl)quinazolin-4(3H)-one] it is over 10 µM.

In the case of `COc1cc2nc3n(c(=O)c2cc1Cl)CC[C@@H]1[C@@H]3CCCN1CCOC(C)C` (racemic) [trans-7ff, (±)-(4aR,13bS)-10-chloro-4-(2-isopropoxyethyl)-11-methoxy-1,2,3,4,4a,5,6,13b-octahydro-8H-[1,6]naphthyridino[5,6-b]quinazolin-8-one], the concentration giving a half-maximal response (EC50) was 0.1 to 1 µM.
